Reference: patent US20210236605A1, “COMBINATIONS OF OSTEOPONTIN AND 2'-FUCOSYLLACTOSE FOR USE AS MEDICAMENTS” (HEALTH AND HAPPINESS (H&H) HONG KONG LIMITED, priority 2018, published 2021)

Columns and labels:
[1] = tested on: serum IgE; assay: Determination of serum IgE levels (ELISA) in DNCB sensitized mice; assay type: in vivo; conditions: day 27, DNCB-sensitized BALB/c mice (DNCB saline group 1025.02±82.68), FIG. 3; combination = high dose, trial 8
Protocol: (§1) Balb/c mice were purchased from the Animal Center of Southern Medical University (Guangzhou, China). The animals were maintained under a 12-h light/dark cycle in a specific pathogen-free animal facility at a controlled temperature (20-25° C.) and humidity (50±5%). All mice were fed with regular diet and autoclaved water. All animal experiments in this study were approved by the Welfare and Ethical Committee for Experimental Animal Care of Southern Medical University. To induce AD-like symptom, dinitrochlorobenzene (DNCB) solution (dissolved in a 3:1 mixture of acetone and olive oil) was applied to the dorsal skin and ears of mice (female, 6-8 weeks old). One day after complete dorsal hair removal (approximately 4 cm^2), 150 μl of 2% DNCB solution was applied on the dorsal skin, and 10 μl each were applied to the back of both ears at day 1. Four days after sensitization, 0.5% DNCB dissolved in an acetone:olive oil mixture (3:1 vol/vol) is applied to challenge the dorsal skin (150 μl) and the back of both ears (10 μl each) once every two days, (days-27). OPN and 2-FL were dissolved in 0.9% normal saline. […]
Individual mouse serum was collected on the last day of the experiment. Serum levels of IgE were quantified using the commercial enzyme-linked immunosorbent assay (ELISA) kits (Invitrogen, San Diego, USA) according to the manufacturer's instructions. […]

[2] = tested on: DNCB-induced AD-like symptoms in BALB/c mice; assay: Evaluation of AD score / AD-like symptoms in DNCB-induced BALB/c AD model; assay type: in vivo; conditions: for severity of DNCB-induced AD-like symptoms: BALB/c mice, OPN 37.5 or 2.7 mg/kg(bw)/day, 2-FL 600 or 75 mg/kg(bw)/day, compared with saline-supplemented mice; for AD score (dermatitis score, AD-like symptoms): oral administration, DNCB-treated BALB/c mice, FIG. 1, combinations esp. trials 7 and 8 (high OPN)
Description: To investigate the potential therapeutic effect of OPN or 2-FL or an OPN/2FL combination on inflammation and emergence of atopic dermatitis (AD), BALB/c AD model was established by topical application of DNCB on each ear and the dorsal skin. Edema, excoriation, erythema, and scarring were apparent on the skin of DNCB sensitized mice after multiple challenged of DNCB. Strikingly, the severity of DNCB-induced AD-like symptoms in BALB/c mice was ameliorated upon supplementation with OPN (37.5 or 2.7 mg/kg(bw) day) and 2-FL (600 or 75 mg/kg(bw)·day) compared with saline-supplemented mice. Pruritus is an essential feature of AD. The scratching behaviour has already been established as an objective indicator to evaluate pruritus in animal model.
Balb/c mice were purchased from the Animal Center of Southern Medical University (Guangzhou, China). The animals were maintained under a 12-h light/dark cycle in a specific pathogen-free animal facility at a controlled temperature (20-25° C.) and humidity (50±5%). All mice were fed with regular diet and autoclaved water. All animal experiments in this study were approved by the Welfare and Ethical Committee for Experimental Animal Care of Southern Medical University. To induce AD-like symptom, dinitrochlorobenzene (DNCB) solution (dissolved in a 3:1 mixture of acetone and olive oil) was applied to the dorsal skin and ears of mice (female, 6-8 weeks old). One day after complete dorsal hair removal (approximately 4 cm^2), 150 μl of 2% DNCB solution was applied on the dorsal skin, and 10 μl each were applied to the back of both ears at day 1. Four days after sensitization, 0.5% DNCB dissolved in an acetone:olive oil mixture (3:1 vol/vol) is applied to challenge the dorsal skin (150 μl) and the back of both ears (10 μl each) once every two days, (days-27). OPN and 2-FL were dissolved in 0.9% normal saline. Mice treated with DNCB are intragastrically administered with 2-FL, OPN or 2-FL plus OPN from day 0 to day 27. The mice in the vehicle and another DNCB groups are given an equal volume of physiological saline.
The severity of dorsal skin lesions were assessed macroscopically according to the following four symptoms: edema, erythema/hemorrhage, excoriation/erosion, and scarring/dryness, and the sum of the individual scores (0, no symptoms; 1, mild; 2, moderate; 3, severe), ranging from 0 to 12, was defined as the final dermatitis scores. These visual assessments were performed every two day and by at least two independent investigators.
FIG. 1: OPN and 2-FL alleviation of AD-like symptoms induced—as per dermatitis score evaluation—by DNCB in BALB/c mice. […]

[3] = tested on: scratching behaviour (pruritus) in DNCB-treated BALB/c mice; assay: Assessment of scratching behaviour in DNCB-treated BALB/c mice; assay type: in vivo; conditions: oral administration, FIG. 2, combination esp. trials 7 & 8
Protocol: as §1, with “(days-27).” for “(days-27). OPN and 2-FL were dissolved in 0.9% normal saline.”
Mice were placed into cages for 1 h for habituation. After habituation, the number of scratching episodes for 15 min was counted macroscopically. A series of scratching movements made with the paw was counted as one scratching episode. The total scratching behaviour number was calculated within 15 min. […]

[4] = tested on: cytokine mRNA expression in skin (TSLP, IL-4, IL-17, IFN-γ, T-bet, GATA3, ROR-γt); assay: Quantitative RT-PCR of cytokine and transcription factor mRNA in dorsal skin of DNCB-treated mice; assay type: in vivo, BALB/c mice; conditions: dorsal skin / skin lesions, ratio to GAPDH, vs saline-treated/control AD mice
Protocol: Total RNA was isolated from the dorsal skin of the control and treated BALB/c mice. Subsequently, cytokine mRNA expression in the skin sample was measured by RT-PCR.
Balb/c mice were purchased from the Animal Center of Southern Medical University (Guangzhou, China). The animals were maintained under a 12-h light/dark cycle in a specific pathogen-free animal facility at a controlled temperature (20-25° C.) and humidity (50±5%). All mice were fed with regular diet and autoclaved water. All animal experiments in this study were approved by the Welfare and Ethical Committee for Experimental Animal Care of Southern Medical University. […]
Total RNA was isolated from dorsal skin using TRIzol (TransGen Biotech, Beijing, China) according to manufacturer's instruction. 500 ng RNA was quantified for the reverse transcription reaction with TranScript All-in-One First-Strand cDNA Synthesis SuperMix (TransGen Biotech, Beijing, China) in a total volume of 10 μL. Quantitative real-time PCR (RT-PCR) analysis of gene expression was performed using TransStart Green qPCR SuperMix (TransGen Biotech, Beijing, China). […]
FIGS. 5 (a), (b) and (c): Relative mRNA expression levels of Th2-associated cytokines ((a) TSLP and (b) IL-4) and IL17a, as measured by RT-PCR and expressed as a ratio of GAPDH, extracted from BALB/c mice treated with DNCB in the presence and absence of OPN and/or 2FL. *p<0.05, **p<0.01. […]

| Substance | serum IgE concentration [1] [µg/mL] | severity of DNCB-induced AD-like symptoms [2] | AD score (dermatitis score, AD-like symptoms) [2] | scratching behaviour (number of scratching episodes for 15 min) [3] | IL-17 mRNA expression in skin [4] |
| --- | --- | --- | --- | --- | --- |
| 2′-fucosyllactose [2-FL] | 621.27 ± 46.79 | ameliorated | reduced substantially | reduced scratching behaviour | significantly lower |
| osteopontin [OPN] | 388.22 ± 61.28 | ameliorated | reduced substantially | reduced scratching behaviour | significantly lower |
